# Data as given in patent publication EP1129187B1, “NEW FAMILY OF MAMMALIAN POTASSIUM CHANNELS, THEIR CLONING AND THEIR USE, ESPECIALLY FOR THE SCREENING OF DRUGS” (CENTRE NATIONAL DE LA RECHERCHE SCIENTIFIQUE (CNRS), priority 1998, dated 2000).
# Read-outs that look alike come from different tables or passages of the source.
# What was measured:
# [1] = target: T1, human TWIK-1 K+ channel, SEQ ID NO: 2 (Homo sapiens, UniProt O00180); assay: TWIK-1 K+ currents, two-electrode voltage clamp in Xenopus oocytes injected with TWIK-1 cRNA; type: cell-based
# T1 construct: expressed in transfected cells; host or cells: Xenopus laevis oocytes injected with cRNA transcribed from pEXO-TWIK-1
# T1 sequence (O00180 1-336): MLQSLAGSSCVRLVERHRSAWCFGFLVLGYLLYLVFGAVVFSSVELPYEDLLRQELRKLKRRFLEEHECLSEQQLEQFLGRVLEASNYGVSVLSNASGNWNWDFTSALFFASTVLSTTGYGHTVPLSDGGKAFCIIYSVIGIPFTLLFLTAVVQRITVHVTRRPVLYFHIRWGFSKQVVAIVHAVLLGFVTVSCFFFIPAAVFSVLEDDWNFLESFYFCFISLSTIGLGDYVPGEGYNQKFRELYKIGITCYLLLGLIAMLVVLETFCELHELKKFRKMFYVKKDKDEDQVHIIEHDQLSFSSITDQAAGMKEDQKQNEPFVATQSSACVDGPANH
# Method: For the functional study, the coding sequence of TWIK-1 was inserted between the noncoding sequences 5' and 3' of Xenopus globin in the vector pEXO (Lingueglia, E. et al., 1993, J. Biol. Chem., 269, 13736-13739). A complementary RNA (cRNA) was transcribed of this construction and injected in the oocytes of X laevis. In a 0.3ml perfusion chamber, a single oocyte was impaled on two standard glass microelectrodes (0.5 - 2.0 MW) charged with 3 M KCI and maintained under voltage-clamp with a Dagan TEV200 amplifier. The bath solution contained 98 mM KCl,1.8 raM CaCl2 […] and 5 mM HEPES at pH 7.4 with KOH. Stimulation of the preparation, data acquisition and analyses were carried out with the pClamp program (Axon Instruments) USA3.
# Intracellular acidification of the oocytes was produced using two methods: • superfusion with a solution enriched in CO2 which produces acidification by a mechanism involving the bicarbonate transport system (Guillemare, E. et al., 1995, Mol. Pharmacol., 47, 588-594); • treatment with dinitrophenol (DNP), which is a metabolic inhibitor that decouples the H+ gradient in mitochondria and induces internal acidity (Pedersen, P. L. and Carafoli, E., 1997, Trends Biol. Sci., 12, 146-189).
# Phosphorylation or dephosphorylation of specific amino acid residues is an important mechanism of regulation of the ionic channels (Levitan, I. B., 1994, Annul Rev. Physiol., 56, 193-212).
# [2] = target: TWIK-1 (Tandem of P domains in a Weak Inward rectifying K+ channel) (human); assay: cell-based or functional assay
# [3] = target: T2, human TASK-2 K+ channel, SEQ ID NO: 28 (Homo sapiens, UniProt O95279); assay: TASK-2 currents elicited by voltage pulses to +50 mV, whole cell recording in transfected COS cells; type: cell-based
# T2 construct: expressed in transfected cells; host or cells: COS cells transiently transfected with pIREScd8-TASK-2 (DEAE-dextran)
# T2 sequence (O95279 1-499): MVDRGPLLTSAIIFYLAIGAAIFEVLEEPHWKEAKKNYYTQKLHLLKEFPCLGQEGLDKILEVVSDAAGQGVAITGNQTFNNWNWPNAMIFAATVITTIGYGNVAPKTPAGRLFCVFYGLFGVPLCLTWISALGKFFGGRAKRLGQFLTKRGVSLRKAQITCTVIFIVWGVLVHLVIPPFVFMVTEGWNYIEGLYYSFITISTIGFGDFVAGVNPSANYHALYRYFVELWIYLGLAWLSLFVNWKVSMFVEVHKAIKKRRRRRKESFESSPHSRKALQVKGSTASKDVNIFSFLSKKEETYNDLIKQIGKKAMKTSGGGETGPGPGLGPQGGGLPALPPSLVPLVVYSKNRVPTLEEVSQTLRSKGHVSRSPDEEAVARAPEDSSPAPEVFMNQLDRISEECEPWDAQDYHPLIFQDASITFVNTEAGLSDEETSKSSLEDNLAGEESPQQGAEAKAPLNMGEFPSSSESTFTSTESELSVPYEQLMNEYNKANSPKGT
# Method: For patch clamp analyses, a NotI/EcoRI fragment of 3.2 kb was excised from pBS-TASK 2 and subcloned into the pIRES-CD8 vectorto givepIREScdB-TASK-2. ThepIRES-CD8 vector was obtained by replacing the neo^R gene in the original vector pIRESneo (Clontech) by the coding sequence of the T type lymphocyte's surface marker CD8. COS cells were seeded at a density of 20,000 cells per 35 mm dishes 24 h prior to transfection. Cells were then transiently transfected by the classical DEAE-dextian method with 1 µg of prREScdB-TASK-2 plasmid per 35 mm dish. Transiently-transfected cells were visualized 48 h after transfection using the anti-CD8 antibody coated beads method (24). For whole cell recordings, the internal solution contained 150 mM KCI, 3 mM MgCl2, 5 mM EGTA, and 10 mM HEPES at pH 7.2 with KOH, and he external solution 150 mM NaCl, 5 mM KCI, 3 mM MgCl2 1 mM CaCl2, 10 mM HEPES at pH 7.4 with NaOH.
# The effects of various pharmacological agents on currents elicited by voltage pulses to +50 mV have been studied in TASK-2-exprcssing. COS cells.
# [4] = target: human TASK1 K+ channel, SEQ ID NO: 4 (Homo sapiens, UniProt O14649); assay: TASK1 currents elicited by voltage pulses to +50 mV, two-electrode voltage clamp in Xenopus oocytes; type: cell-based; details: for inhibition at 100 µM: read-out: TASK1 currents inhibited
# Method: For functional studies, TASK1 cRNAs were injected into Xenopus oocytes. This was accomplished by subcloning a 2480 bp SmaI/XhoI fragment from pBS-hT ASK containing 14 bp of 5' UTR, the coding sequence and the entire 3' UTR into the pEXO vector (Lingueglia et al., 1993) to give pEXO-TASK1. Capped-cRNAs were synthesised in vitro from the linearized plasmid by using the T7 RNA polymerase (Stratagene). Xenopus laevis were purchased from CRBM (Montpellier, France). Preparation and cRNA injection of oocytes has been described elsewhere (Guillemare et al., 1992). Oocytes were used for electrophysiological studies 2 to 4 days following injection (20 ng/oocyte). In a 0.3 ml perfusion chamber, a single oocyte was impaled with two standard microelectrodes (1-2.5 Mn resistance) filled with 3 M KCI and maintained under voltage clamp by using a Dagan TEV 200 amplifier, in standard ND96 solution (96 mM NaC1. 2 mM KCI, 1.8 mM CaCI2, 2 mM MgCl2, 5 mM HEPES, pH 7.4 with NaOH). In some experiments, NaCl was substituted with TMA Cl (Tetra Methyl Ammonium Chloride). Stimulation of the preparation, data acquisition, and analysis were performed using pClamp software (Axon instruments, USA). Drugs were applied externally by addition to the superfusate (flow rate: 3 ml/min) or intracellularly injected by using a pressure microinjector (Inject+Matic, Switzedand). All experiments were performed at room temperature (21-22 °C).
# Figure 12A presents the I-V relationships of the current in K^+-rich solutions ranging from 2 mM to 98 mM. […] The theoretical I-V relationships in various [K^+]out calculated according to the Goldman-Hodgkin-Katz current equation are shown in Figure 12D. […] The effect of various pharmacological agents on currents elicited by voltage pulses to +50 mV has been studied in TASK1-expressing oocytes.
# [5] = target: T1, human TWIK-1 K+ channel, SEQ ID NO: 2; assay: TWIK-1 single channel activity, excised patch from Xenopus oocytes; type: cell-based; details: perfusion of the excised patch with 10 mM
# Method: The pipettes were filled with a strong K+ solution (40 mM KCl, 100 mM of potassium methane sulfonate, 1.8 mM CaCl2, 2 m M MgCl2 and 5 mM HEPES adjusted to pH 7.4 with KOH). 100 µM of GdCl3 was added to the pipette solution to inhibit the action of the […]. The inside-out patches were perfused with a solution containing 140 mM KC1,10 mM CaCl2, 5 mM HEPES adjusted to pH 7.2 with KOH and 5 m M EGTA added daily. The single channel signals were filtered at 3.5 kHz and analyzed with the Biopatch program (Big-Logic, Grenoble, France).
# With 3 mM of internal Mg^2+, the mean duration of opening at +80 mV is 1.9 ms and the unitary conductance is 19 +/- 1 pS (Figure 5c). At -80 mV, the channels are oscillating with a mean duration of opening of 0.3 ms, and a conductance value in creasing to 34 pS. […] In contrast to numerous channels which require the presence of ATP for their activity in the excised patch configuration, ATP is not required for the expression of TWIK-1.
# [6] = read-out: inhibition of TWIK-1 currents
# [7] = COS, read-out: inhibition of the TASK-2 current
# Sequence of human TASK1 K+ channel, SEQ ID NO: 4 (O14649 whole entry, the tested form may be a part): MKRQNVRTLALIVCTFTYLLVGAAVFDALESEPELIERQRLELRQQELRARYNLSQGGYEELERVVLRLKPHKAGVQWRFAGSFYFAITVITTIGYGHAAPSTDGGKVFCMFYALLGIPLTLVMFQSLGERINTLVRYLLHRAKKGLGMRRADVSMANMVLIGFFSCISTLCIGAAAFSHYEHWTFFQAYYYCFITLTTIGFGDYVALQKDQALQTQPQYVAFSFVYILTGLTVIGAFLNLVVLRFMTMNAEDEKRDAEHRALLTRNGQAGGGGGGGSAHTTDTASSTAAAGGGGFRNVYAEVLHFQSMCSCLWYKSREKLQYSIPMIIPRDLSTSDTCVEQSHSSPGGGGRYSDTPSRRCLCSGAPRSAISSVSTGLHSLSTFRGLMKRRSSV
# Sequence of charybdotoxine (P13487 23-59 limits assumed): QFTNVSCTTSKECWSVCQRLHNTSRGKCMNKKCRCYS
molecule,measurement,setting,value
C1CCC2(C1)C1CN(CC3CC3)CC2CN(CC2CC2)C1 [tedisamil],inhibition at 100 µM,"[1]; at 100 µM, read-out: inhibition of TWIK-1 currents",30%
"O=[N+]([O-])c1ccc(O)c([N+](=O)[O-])c1 [DNP, dinitrophenol]",inhibition at 1000 µM,"[1]; DNP 1 mM, intracellular acidification, % of the control amplitude, read-out: reduction in the TWIK-1 currents",80%
CCCCCCC[N+](CC)(CC)CCCCc1ccc(Cl)cc1 [clofilium],inhibition at 30 µM,[1],< 10%
COc1ccc(Cl)cc1C(=O)NCCc1ccc(S(=O)(=O)NC(=O)NC2CCCCC2)cc1 [glibenclamide],inhibition at 30 µM,[1],< 10%
apamin (from UniProt P01500 28-45) (peptide),"inhibition of TWIK-1 K+ currents (two-electrode voltage clamp, Xenopus oocytes)",[2],< 10%
CCCCc1oc2ccccc2c1C(=O)c1cc(I)c(OCCN(CC)CC)c(I)c1 [amiodarone],inhibition at 100 µM,[1]; [6],< 10%
C=C[C@H]1C[N@@]2CC[C@H]1C[C@H]2[C@H](O)c1ccnc2ccc(OC)cc12 [quinine],IC50,[3],22.4 ± 1.8 µM
same,inhibition at 100 µM,[3]; [7],65 ± 3.8%
same,inhibition at 100 µM,[4],< 20%
CCN(CC)CC(=O)Nc1c(C)cccc1C [lidocaine],inhibition at 1000 µM,[3]; [7],60.4 ± 1.5%
"Nc1ncnc2c1nc(Cl)n2[C@@H]1O[C@@H]2COP(=O)(O)O[C@H]2[C@H]1O [8-Cl-AMPc, 8-chloro cAMP]",sensitivity of TASK-2 currents,[3]; perfusion of 500 µM,insensitive
same,effect on the activity of TWIK-1,"[1]; 300 µM, activation of protein kinase A",does not affect
dedrotoxine (peptide),"inhibition of TWIK-1 K+ currents (two-electrode voltage clamp, Xenopus oocytes)",[2],< 10%
CC(C)Cn1c(=O)n(C)c(=O)c2[nH]cnc21 [IBMX],sensitivity of TASK-2 currents,"[3]; IBMX 1 mM in a cocktail with forskolin 10 µM, increasing intracellular cAMP",insensitive
same,sensitivity of TASK1 currents,"[4]; IBMX 1 mM perfused together with forskolin 10 µM, activation of adenyl cyclase",insensitive
O=C(O)CN(CCOCCOCCN(CC(=O)O)CC(=O)O)CC(=O)O [EGTA],sensitivity of TASK1 currents,"[4]; injection of 100 mM, internal Ca2+ change",insensitive
charybdotoxine (from UniProt P13487 23-59) (peptide),"inhibition of TWIK-1 K+ currents (two-electrode voltage clamp, Xenopus oocytes)",[2],< 10%
C=C[C@H]1C[N@@]2CC[C@H]1C[C@@H]2[C@@H](O)c1ccnc2ccc(OC)cc12 [quinidine],inhibition at 100 µM,[4],< 20%
Nc1ncnc2c1ncn2[C@@H]1O[C@H](COP(=O)(O)OP(=O)(O)OP(=O)(O)O)[C@@H](O)[C@H]1O [ATP],effect on the activity of the TWIK-1 channel,[5],does not induce any effect
CCCCC/C=C\C/C=C\C/C=C\C/C=C\CCCC(=O)O [arachidonic acid],sensitivity of TASK-2,[3]; 10 µM,not sensitive
CNc1ccc2oc(C[C@H]3O[C@@]4(CC[C@H]3C)O[C@H]([C@H](C)C(=O)c3ccc[nH]3)[C@H](C)C[C@H]4C)nc2c1C(=O)O [A23187],effect on the properties of the TWIK-1 channel,[1],without effect
CCCCN1CCCCC1C(=O)Nc1c(C)cccc1C (stereo not shown) [bupivacaïne],inhibition at 1000 µM,"[3]; COS, 1 mM, n = 4, read-out: inhibition of the TASK-2 current",80.9%
O=P(O)(O)O[C@@H]1[C@H](O)[C@H](O)[C@@H](OP(=O)(O)O)[C@H](OP(=O)(O)O)[C@H]1O [inositol triphosphate],sensitivity of TASK1 currents,"[4]; injection of 1 mM, internal Ca2+ change",insensitive
CC1(C)Oc2ccc(C#N)cc2C(N2CCCC2=O)C1O (stereo not shown) [cromakaline],sensitivity of the TWIK-1 channel to K+ channel opener,[1]; 140 µM,not sensitive
Nc1ccncc1 [4-aminopyridine],effect on TASK-2 currents,[3]; 100 µM,inactive
same,inhibition at 1000 µM,"[1]; at 1 mM, read-out: inhibition of TWIK-1 currents",< 10%
"CC[N+](CC)(CC)CC [TEA, tetraethylammonium]",effect on TASK-2 currents,[3]; 1 mM,inactive
same,inhibition at 20000 µM,[1]; [6],30%
CCN(CC)CCCC(C)Nc1c2ccc(Cl)cc2nc2ccc(OC)cc12 (stereo not shown) [quinacrine],inhibition at 100 µM,[4],< 20%
CC(N/C(=N\C#N)Nc1ccncc1)C(C)(C)C (stereo not shown) [pinacidil],sensitivity of the TWIK-1 channel to K+ channel opener,[1]; 100 µM,not sensitive
"CCCCCCCCCC(=O)O[C@@H]1[C@@H](C)[C@@]2(O)[C@@H](C=C(CO)C[C@@]3(O)C(=O)C(C)=C[C@@H]23)[C@@H]2C(C)(C)[C@]12OC(=O)CCCCCCCCC [PDA, 4α-phorbol-12, 13 didecanoate]",effect on TWIK-1 currents,[1],no effect
